Source: US20120135923A1, “Use of Melanocortins to Treat Dyslipidemia” (IPSEN PHARMA, S.A.S., priority 2009, published 2012)
Like-named read-outs stand apart in the source and are kept apart here. Bridge positions count the residues as written; N and C are the ends. Square brackets hold non-standard residues; d marks the D form. Peptide text beside a SMILES is read from it. d2Nal = N[C@H](Cc1ccc2ccccc2c1)C(=O)O; Bta = N[C@@H](Cc1csc2ccccc12)C(=O)O; Pen = CC(C)(S)[C@H](N)C(=O)O; GABA = NCCCC(=O)O; βAla = NCCC(=O)O

Legend:
hMC5-R [1] = target: T1, hMC5-R (Homo sapiens, UniProt P33032); experiment: Radioligand binding assay, [125I]-NDP-α-MSH competition, CHO-K1 membranes
T1 construct: expressed in transfected cells; host or cells: CHO-K1
Method: (§1) Cellular membranes used for the in vitro receptor binding assays were obtained from transgenic CHO-K1 cells stably expressing hMC-R receptor subtypes 1, 3, 4 or 5. […] The pellets were resuspended in the same buffer and centrifuged at 50,000 g for 10 minutes at approximately 4° C. The washed pellets containing the cellular membranes were stored at approximately −80° C.
(§2) Cell membranes (1-10 μg protein/well) prepared as described above were incubated in 50 mM Tris-HCl at pH 7.4 containing 0.2% bovine serum albumin (BSA), 5 mM MgCl2, 1 mM CaCl2 and 0.1 mg/mL bacitracin, with increasing concentrations of the test compound and 0.1-0.3 nM [^25I]-NDP-α-MSH for approximately 90-120 minutes at approximately 37° C. […] Filters were washed three times with 50 mM Tris-HCl at pH 7.4 at a temperature of approximately 0-4° C. and then assayed for radioactivity using a Packard Topcount® scintillation counter. Binding data were analyzed by computer-assisted non-linear regression analysis (XL fit; IDBS).

hMC5-R [2] = target: T1, hMC5-R; experiment: cyclic AMP bioassay (ECL) in CHO-K1 cells; type: cell-based
hMC3-R = target: T2, hMC3-R (Homo sapiens, UniProt P41968); experiment: cyclic AMP bioassay (ECL) in CHO-K1 cells; type: cell-based; details: for EC50: Table 9A/9B, read-out: EC50 hMC3-R
T2 construct: expressed in transfected cells; host or cells: CHO-K1

hMC4-R = target: T3, hMC4-R (Homo sapiens, UniProt P32245); experiment: cyclic AMP bioassay (ECL) in CHO-K1 cells; type: cell-based; details: for EC50: Table 9A/9B, read-out: EC50 hMC4-R
T3 construct: expressed in transfected cells; host or cells: CHO-K1
Method: (§3) Intracellular cyclic AMP (cAMP) levels were determined by an electrochemiluminescence (ECL) assay (Meso Scale Discovery®, Gaithersburg, Md.; referred to hereinafter as MSD). […] Transgenic CHO-K1 cells stably expressing hMC receptor subtypes 1, 3, 4 or 5 were dispensed at a density of approximately 7,000 cells/well in 384-well Multi-Array®plates (MSD) containing integrated carbon electrodes and coated with anti-cAMP antibody. Increasing concentrations of the test compounds were added and the cells were incubated for approximately 40 minutes at approximately 37° C. […] At the end of the second incubation period read buffer (Tris-buffered solution containing an ECL co-reactant and Triton X-100 at ph 7.8) was added and the cAMP levels in the cell lysates were immediately determined by ECL detection with a Sector Imager 6000 Reader® (MSD). Data were analyzed using a computer-assisted non-linear regression analysis (XL fit; IDBS) and reported as either an EC50 value or a Kb value.
(§4) The Kb value reflects the potency of an antagonist and is determined by Schild analysis. In brief, concentration-response curves of an agonist are carried out in the presence of increasing concentrations of an antagonist. […] It is calculated by extrapolating the line on a Schild plot to zero on the y-axis.

hMC1-R [3] = target: T4, hMC1-R (Homo sapiens, UniProt Q01726); experiment: cyclic AMP bioassay (ECL) in CHO-K1 cells; type: cell-based
T4 construct: expressed in transfected cells; host or cells: CHO-K1
Method: as §3, §4

hMC1-R [4] = target: T4, hMC1-R; experiment: Radioligand binding assay, [125I]-NDP-α-MSH competition, CHO-K1 membranes; details: Table 5; read-out: Ki hMC1-R
Method: as §1, §2

[5] = cAMP, CHO-K1 cells expressing hMC5-R, read-out: EC50 hMC5-R
[6] = antagonist potency by Schild analysis, cAMP, CHO-K1 cells expressing hMC3-R, read-out: Kb hMC3-R
[7] = antagonist potency by Schild analysis, cAMP, CHO-K1 cells expressing hMC4-R, read-out: Kb hMC4-R
[8] = cAMP, CHO-K1 cells expressing hMC1-R, read-out: EC50 hMC1-R
[9] = Table 9A/9B, read-out: EC50 hMC5-R
[10] = Table 9A/9B, read-out: EC50 hMC1-R

T3 sequence (P32245 whole entry): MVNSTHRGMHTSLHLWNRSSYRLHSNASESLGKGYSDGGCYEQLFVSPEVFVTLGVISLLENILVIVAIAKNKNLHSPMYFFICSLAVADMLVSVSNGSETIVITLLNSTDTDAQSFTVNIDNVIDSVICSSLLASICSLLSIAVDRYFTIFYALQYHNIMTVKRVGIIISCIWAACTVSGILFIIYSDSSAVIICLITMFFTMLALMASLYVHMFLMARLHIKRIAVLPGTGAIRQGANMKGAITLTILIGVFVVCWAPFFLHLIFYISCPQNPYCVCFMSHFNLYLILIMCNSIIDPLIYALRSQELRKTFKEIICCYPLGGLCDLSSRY
T4 sequence (Q01726 whole entry): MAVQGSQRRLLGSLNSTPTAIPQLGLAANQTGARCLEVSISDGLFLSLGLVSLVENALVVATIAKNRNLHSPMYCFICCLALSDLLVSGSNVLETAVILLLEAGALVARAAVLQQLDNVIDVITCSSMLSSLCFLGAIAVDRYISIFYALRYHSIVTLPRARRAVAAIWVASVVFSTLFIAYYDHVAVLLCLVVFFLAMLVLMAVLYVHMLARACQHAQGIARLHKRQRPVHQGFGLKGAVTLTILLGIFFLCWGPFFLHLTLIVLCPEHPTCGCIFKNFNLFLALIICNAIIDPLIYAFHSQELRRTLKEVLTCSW
T1 sequence (P33032 whole entry): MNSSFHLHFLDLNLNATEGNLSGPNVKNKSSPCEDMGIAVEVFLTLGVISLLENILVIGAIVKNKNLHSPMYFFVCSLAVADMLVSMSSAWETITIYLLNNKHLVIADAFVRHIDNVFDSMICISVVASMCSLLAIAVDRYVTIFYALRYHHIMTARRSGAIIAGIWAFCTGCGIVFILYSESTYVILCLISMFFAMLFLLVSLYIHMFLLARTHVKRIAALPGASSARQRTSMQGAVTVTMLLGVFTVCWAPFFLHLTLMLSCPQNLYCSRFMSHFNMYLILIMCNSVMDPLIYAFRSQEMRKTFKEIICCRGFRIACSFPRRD
T2 sequence (P41968 whole entry): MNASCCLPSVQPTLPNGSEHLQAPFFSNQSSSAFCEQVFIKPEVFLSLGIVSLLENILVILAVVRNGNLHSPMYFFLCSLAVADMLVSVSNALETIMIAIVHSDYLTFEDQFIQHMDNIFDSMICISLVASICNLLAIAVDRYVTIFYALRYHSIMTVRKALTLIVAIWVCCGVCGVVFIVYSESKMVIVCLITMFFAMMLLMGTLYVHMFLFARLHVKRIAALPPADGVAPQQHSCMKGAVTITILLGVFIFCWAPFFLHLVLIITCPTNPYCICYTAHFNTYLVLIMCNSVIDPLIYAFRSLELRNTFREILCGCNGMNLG

Compound | EC50 (hMC5-R [2]; [9]) [nM] | EC50 (hMC3-R) [nM] | EC50 (hMC4-R) [nM] | EC50 (hMC1-R [3]; [10]) [nM] | Ki (hMC1-R [4]) [nM] | other results
CC(=O)N[C@H]1CSSC[C@@H](C(=O)N2CCC[C@H]2C(=O)N2CCC[C@H]2C(=O)N[C@@H](CCCCN)C(=O)N[C@@H](CC(=O)O)C(=O)NCCC(=O)N[C@@H](Cc2ccc(O)cc2)C(=O)NCC(=O)N[C@@H](CCCNC(=N)N)C(=O)N[C@@H](CCCCN)C(=O)N[C@@H](CCCCN)C(=O)N[C@@H](CCCNC(=N)N)C(=O)N[C@@H](CCCNC(=N)N)C(=O)N[C@@H](CCC(N)=O)C(=O)N[C@@H](CCCNC(=N)N)C(=O)N[C@@H](CCCNC(=N)N)C(=O)N[C@@H](CCCNC(=N)N)C(N)=O)NC(=O)[C@H](C)NC(=O)[C@H](Cc2csc3ccccc23)NC(=O)[C@H](CCCNC(=N)N)NC(=O)[C@@H](Cc2ccc3ccccc3c2)NC(=O)[C@H](Cc2c[nH]cn2)NC(=O)[C@H](CCC(=O)O)NC1=O | – | – | – | – | – | Ki (hMC5-R [1]; Table 6, read-out: Ki hMC5-R): 15.3 nM; EC50 (hMC5-R [2]; [5]): 1800 nM; Kb (hMC3-R; [6]): 112 nM; Kb (hMC4-R; [7]): 41.1 nM; EC50 (hMC1-R [3]; [8]): 37.9 nM
CC(=O)N[C@H]1CSSC[C@@H](C(=O)N2CCC[C@H]2C(=O)N2CCC[C@H]2C(=O)N[C@@H](CCCCN)C(=O)N[C@@H](CC(=O)O)C(=O)NCCC(=O)NCC(=O)N[C@@H](CCCNC(=N)N)C(=O)N[C@@H](CCCCN)C(=O)N[C@@H](CCCNC(=N)N)C(=O)N[C@@H](CCCNC(=N)N)C(=O)N[C@@H](CCCNC(=N)N)C(=O)N[C@@H](CCC(N)=O)C(=O)N[C@@H](CCCNC(=N)N)C(=O)N[C@@H](CCCNC(=N)N)C(=O)N[C@@H](CCCNC(=N)N)C(N)=O)NC(=O)[C@H](C)NC(=O)[C@H](Cc2csc3ccccc23)NC(=O)[C@H](CCCNC(=N)N)NC(=O)[C@@H](Cc2ccc3ccccc3c2)NC(=O)[C@H](Cc2c[nH]cn2)NC(=O)[C@H](CCC(=O)O)NC1=O | – | – | – | – | – | Ki (hMC5-R [1]; Ki hMC5-R, Table 6): 15.5 nM; EC50 (hMC5-R [2]): 194 nM; Kb (hMC3-R): 98.3 nM; Kb (hMC4-R): 5.23 nM; EC50 (hMC1-R [3]): 32.2 nM
CC(=O)N[C@H]1CSSC[C@@H](C(=O)N2CCC[C@H]2C(=O)N2CCC[C@H]2C(=O)N[C@@H](CCCCN)C(=O)N[C@@H](CC(=O)O)C(=O)NCCC(=O)NCC(=O)N[C@@H](CCCNC(=N)N)C(=O)N[C@@H](CCCNC(=N)N)C(=O)N[C@@H](CCCNC(=N)N)C(=O)N[C@@H](CCCNC(=N)N)C(=O)N[C@@H](CCCNC(=N)N)C(=O)N[C@@H](CCC(N)=O)C(=O)N[C@@H](CCCNC(=N)N)C(=O)N[C@@H](CCCNC(=N)N)C(=O)N[C@@H](CCCNC(=N)N)C(N)=O)NC(=O)[C@H](C)NC(=O)[C@H](Cc2csc3ccccc23)NC(=O)[C@H](CCCNC(=N)N)NC(=O)[C@@H](Cc2ccc3ccccc3c2)NC(=O)[C@H](Cc2c[nH]cn2)NC(=O)[C@H](CCC(=O)O)NC1=O (Ac-CEH[d2Nal]R[Bta]ACPPKD[βAla]GRRRRRQRRR-NH2; disulfide 1-8) | – | – | – | – | – | Ki (hMC5-R [1]; Table 6, read-out: Ki hMC5-R): 165 nM; EC50 (hMC5-R [2]; [5]): 1400 nM; Kb (hMC3-R; [6]): 104 nM; Kb (hMC4-R; [7]): 32 nM; EC50 (hMC1-R [3]; [8]): 146 nM
CC(=O)N[C@@H](CCCNC(=N)N)C(=O)N[C@H]1CC(=O)NCCCC[C@@H](C(N)=O)NC(=O)[C@H](C)NC(=O)[C@H](Cc2c[nH]c3ccccc23)NC(=O)[C@H](CCCNC(=N)N)NC(=O)[C@@H](Cc2ccccc2)NC(=O)[C@H](Cc2c[nH]cn2)NC1=O [Ac-Arg-c(Asp-His-D-Phe-Arg-Trp-Ala-Lys)-NH2] | 467 | 2.89 | 0.055 | 1.39 | – | Ki (hMC5-R [1]; Table 5, read-out: Ki hMC5-R): 783 nM

Continued, in another order:

EC50 (hMC5-R [2]; [9]) [nM] | EC50 (hMC3-R) [nM] | EC50 (hMC4-R) [nM] | EC50 (hMC1-R [3]; [10]) [nM] | Ki (hMC1-R [4]) [nM] | Compound | other results
23.2 | 8.09 | 0.719 | 4.23 | 1.81 | CC(=O)N[C@@H](CCCNC(=N)N)C(=O)N[C@H]1CSSC(C)(C)[C@@H](C(N)=O)NC(=O)CCCNC(=O)[C@H](Cc2c[nH]c3ccccc23)NC(=O)[C@H](CCCNC(=N)N)NC(=O)[C@@H](Cc2ccccc2)NC(=O)[C@H](Cc2c[nH]cn2)NC1=O [Ac-Arg-c(Cys-His-D-Phe-Arg-Trp-Gaba-Pen)-NH2] (Ac-RCH[dF]RW[GABA][Pen]-NH2; disulfide 2-8 (inferred)) | –
297 | 5.76 | 0.078 | 1.48 | 0.79 | CC(=O)N[C@H](CCCNC(=N)N)C(=O)N[C@H]1CC(=O)NCCCC[C@@H](C(N)=O)NC(=O)[C@H](C)NC(=O)[C@H](Cc2c[nH]c3ccccc23)NC(=O)[C@H](CCCNC(=N)N)NC(=O)[C@@H](Cc2ccccc2)NC(=O)[C@H](Cc2c[nH]cn2)NC1=O [Ac-D-Arg-c(Asp-His-D-Phe-Arg-Trp-Ala-Lys)-NH2] | –
2140 | 32.4 | 0.959 | 8.43 | 3.93 | CC(=O)N[C@H](CCCNC(=N)N)C(=O)N[C@H]1CSSC(C)(C)[C@@H](C(N)=O)NC(=O)CCCNC(=O)[C@H](Cc2c[nH]c3ccccc23)NC(=O)[C@H](CCCNC(=N)N)NC(=O)[C@@H](Cc2ccccc2)NC(=O)[C@H](Cc2c[nH]cn2)NC1=O [Ac-D-Arg-c(Cys-His-D-Phe-Arg-Trp-Gaba-Pen)-NH2] (Ac-[dR]CH[dF]RW[GABA][Pen]-NH2; disulfide 2-8 (inferred)) | –
